From patent publication US20060241183A1, “Compositions and methods of using D-DOPA to treat Parkinson's disease” (priority 2004, published 2006)

Experiments:
[1] = test system: urinary excretion of dopamine; settings: D- and L-DOPA 50 mg/kg; cited from earlier work
[2] = test system: striatal concentration of dopamine, DOPAC and HVA; test: Striatal dopamine, DOPAC and HVA after intragastric D- or L-DOPA plus carbidopa in rats with unilateral substantia nigra lesions; assay type: in vivo, male Sprague-Dawley Rats; settings: for time for formation of dopamine in the striatum to reach its maximum concentration: after intragastric administration, inferred from DOPAC and HVA in lesion striata; for time to achieve maximum concentration of dopamine in the central nervous system: following intragastric administration; for increase of dopamine and its metabolites in the intact striata, D- versus L-DOPA / time at which dopamine content in the intact striata peaked / change of dopamine concentrations in the lesion striata: intragastric administration; for change of concentrations of DOPAC and HVA in the lesion striata: one hour after treatment
From the text: The present example illustrates the efficacy of the administration of D-DOPA of L-DOPA in vivo. In order to show the effectiveness of D-DOPA for increasing striatal dopamine content, male Sprague-Dawley Rats (Zivic-Miller, Allison Park, Pa.) weighing 300 to 400 grams were used. At least four weeks prior to the experiments, unilateral Substantia Nigra lesions were produced with intranigral administration of 6-hydroxydopamine according to the procedures set forth in Ungerstedt, Acta Physiol. Scand. (Suppl.) 367, 69 (1971).
The extent of unilateral Substantia Nigra lesions was tested by measuring apomorphine simulated rotation according to the procedures described in Understedt, supra, 1971; Freed et al. Ann. Neurol. 8, 510 (1980).
Either D- or L-DOPA was intragastrically administered to the rats in combination with carbidopa at doses of 50 mg/kg body weight of D-DOPA or L-DOPA and 5 mg/kg body weight of carbidopa, suspended in sterile water, to provide a pharmaceutically acceptable solution for administration. D- or L-DOPA was intragastrically administered to groups of five rats, which were sacrificed one or two hours after treatment. The left (intact) and right (lesioned) striata of these rats were excised and analyzed separately for the content of dopamine and its metabolites 3,4-dihydroxyphenylacetic acid (DOPAC) and homovanillic acid (HVA), according to the procedure as set forth in Karoum, Neuromethods, Vol. 2 (G. B. Baker, A. A. Boulton and J. M. Baker eds.), The Humana Press, Inc., New Jersey, page 305, 1985 (referred to hereafter as “Karoum, Neuromethods”).

[3] = test system: striatal dopamine and its metabolites (DOPAC and HVA); test: Striatal dopamine, DOPAC and HVA after intraventricular administration of L-DOPA, D-DOPA or DHPPA; assay type: in vivo, Sprague-Dawley rats; settings: for Striatal DOPAC / Striatal Dopamine / Striatal HVA: intraventricular, 10 μl, 2 h after treatment, mean ± S.E.M.
Protocol: The present example illustrates the possible involvement of DHPPA in the formation of dopamine from D-DOPA. […] In an attempt to examine an alternate pathway, four groups of Sprague-Dawley rats weighing 120-150 grams with cannulae permanently implanted into their lateral ventricles, according to the procedure described in Robinson et al., Physiol. Behav. 4, 123-124, (1969), were used. One group received 10 μl. of saline into the ventricles. The second, third and fourth groups received, intraventricularly, 200.μ.g of L-DOPA, D-DOPA and 3,4-dihydroxyphenylpyruvic acid (DHPPA) in 10 μl of saline, respectively. The rats were sacrificed two hours after treatment and their striata removed and analyzed. Striatal concentrations of dopamine, DOPAC and HVA were measured by massfragmentography according to the procedure set forth in Karoum, Neuromethods.

circling = settings: rats with unilateral 6-hydroxydopamine lesion; cited from earlier work
[4] = molecular target: T1, L-amino acid decarboxylase (Homo sapiens, UniProt P20711); settings: cited from earlier work
T1 sequence (P20711 1-480): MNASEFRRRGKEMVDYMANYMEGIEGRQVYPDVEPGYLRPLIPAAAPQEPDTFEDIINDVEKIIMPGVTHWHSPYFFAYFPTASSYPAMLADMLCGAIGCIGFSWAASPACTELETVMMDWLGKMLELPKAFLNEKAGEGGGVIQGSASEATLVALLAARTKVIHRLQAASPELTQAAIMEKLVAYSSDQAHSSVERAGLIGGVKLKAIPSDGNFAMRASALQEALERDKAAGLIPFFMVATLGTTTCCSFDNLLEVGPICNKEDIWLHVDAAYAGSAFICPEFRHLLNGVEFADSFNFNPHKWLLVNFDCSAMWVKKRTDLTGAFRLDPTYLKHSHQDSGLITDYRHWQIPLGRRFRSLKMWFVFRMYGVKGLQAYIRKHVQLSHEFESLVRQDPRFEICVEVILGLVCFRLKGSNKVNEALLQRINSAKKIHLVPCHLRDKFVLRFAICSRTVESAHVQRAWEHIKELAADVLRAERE

[5] = test system: striatal dopamine or its metabolites; test: Repeated intragastric administration of DHPPA plus carbidopa, striatal dopamine and metabolites; assay type: in vivo; settings: concluded from repeated intragastric administration
hypothalamic dopamine = test: Hypothalamic dopamine and metabolites after intragastric D- and L-DOPA; assay type: in vivo; settings: after intragastric administration
From the text: DHPPA can be formed from D-DOPA by either of two pathways, that is, direct transamination, or through deamination by D-amino acid oxidase, an enzyme widely distributed in the brain. The pattern of changes of striatal dopamine and its metabolites observed after intragastric administration of D- and L-DOPA are similar to those observed in the hypothalamus.

| SMILES | reduction of urinary excretion of dopamine following D-DOPA compared with co-administration with L-DOPA [1] | time for formation of dopamine in the striatum to reach its maximum concentration [2] | time to achieve maximum concentration of dopamine in the central nervous system [2] [h] | increase of dopamine and its metabolites in the intact striata, D- versus L-DOPA [2] | time at which dopamine content in the intact striata peaked [2] | change of dopamine concentrations in the lesion striata [2] | change of concentrations of DOPAC and HVA in the lesion striata [2] | Striatal DOPAC [3] [ng/mg protein] | Striatal Dopamine [3] [ng/mg protein] | Striatal HVA [3] [ng/mg protein] | induction of circling (circling) | substrate for L-amino acid decarboxylase [4] | elevations of dopamine and DOPAC compared with D- or L-DOPA ([3]; intraventricular administration) | crossing of the blood brain barrier [5] | increases in hypothalamic DOPAC and HVA, L-DOPA versus D-DOPA (hypothalamic dopamine) |
| --- | --- | --- | --- | --- | --- | --- | --- | --- | --- | --- | --- | --- | --- | --- | --- |
| C[C@@](Cc1ccc(O)c(O)c1)(NN)C(=O)O [Carbidopa, carbidopa] | to a far greater degree | – | – | – | – | – | – | – | – | – | – | – | – | – | – |
| N[C@H](Cc1ccc(O)c(O)c1)C(=O)O [D-DOPA] | – | within one hour | 2 | to about the same extent | two hours | Neither D- nor L-DOPA increased dopamine concentrations | markedly increased | 19 ± 0.92 | 116 ± 5.1 | 4.8 ± 0.50 | can induce circling | not a substrate | – | – | – |
| O=C(O)C(=O)Cc1ccc(O)c(O)c1 [DHPPA, 3,4-dihydroxyphenylpyruvic acid] | – | – | – | – | – | – | – | 96 ± 16.6 | 140 ± 11.0 | 23.3 ± 3.53 | – | – | larger elevations | does not easily cross the blood brain barrier | – |
| N[C@@H](Cc1ccc(O)c(O)c1)C(=O)O [L-DOPA] | – | within one hour | 1 | to about the same extent | one hour | Neither D- nor L-DOPA increased dopamine concentrations | markedly increased | 59 ± 9.49 | 120 ± 7.4 | 22.2 ± 1.60 | – | – | – | – | considerably higher |
